Read-outs that look alike come from different tables or passages of the source.
What was measured:
human PDE2A1 = human PDE2A1 (Homo sapiens (Human), UniProt O00408); assay: PDE2 fluorescence polarization (IMAP FP) inhibition assay, human enzyme; type: biochemical; settings: LabB; read-out: hPDE2 Ki (nM) LabB
Experimental: (§1) The activity of the compounds in accordance with the present invention as PDE2 inhibitors may be readily determined using a fluorescence polarization (FP) methodology (Huang, W., et al., J. Biomol Screen, 2002, 7: 215).
Selectivity for PDE2, as compared to other PDE families, was assessed using the IMAPR technology. Human PDE10A2 enzyme was prepared from cytosolic fractions of transiently transfected HEK cells. All other PDE's were GST Tag human enzyme expressed in insect cells and were obtained from BPS Bioscience (San Diego, Calif.): PDE1A (Cat#60010), human PDE2A1(Cat#60020), PDE3A (Cat#60030), PDE4A1A (Cat#60040), PDE5A1 (Cat#60050), PDE6C (Cat#60060), PDE7A (Cat#60070), PDE8A1 (Cat#60080), PDE9A2 (Cat#60090), PDE11A4 (Cat#60110).
Assays for PDE 1 through 11 were performed in parallel at room temperature in 384-well microtiter plates with an incubation volume of 20.2 μL. Solutions of test compounds were prepared in DMSO and serially diluted with DMSO to yield 30 μL of each of ten solutions differing by 3-fold in concentration, at 32 serial dilutions per plate. […] A Labcyte POD 810 (Labcyte, Sunnyvale, Calif.) was used to dispense 200 nL from each well of the titration plate to make eleven copies of the assay plate for each titration, one copy for each PDE enzyme. A solution of each enzyme (dilution from aliquots, sufficient to produce 20% substrate conversion) and a separate solution of FAM-labeled cAMP or FAM-labeled cGMP from Molecular Devices (Sunnyvale, Calif., product # R7506 or cGMP#R7508), at a final concentration of 50 nM were made in the assay buffer (10 mM Tris HCl, pH 7.2, 10 mM MgCl2, 0.05% NaN3 0.01% Tween-20, and 1 mM DTT). Note that the substrate for PDE2 is 50 nM FAM cAMP containing 1000 nM of cGMP. The enzyme and the substrate were then added to the assay plates in two consecutive additions of 10 μL and then shaken to mix. The reaction was allowed to proceed at room temperature for 60 minutes. A binding solution was then made from the kit components, comprised of 80% Solution A, 20% Solution B and binding reagent at a volume of 1/600 the total binding solution. The enzymatic reaction was stopped by addition of 60 μL of the binding solution to each well of the assay plate. The plates were sealed and shaken for 10 seconds. The plates were incubated at room temperature for one hour, then the parallel and perpendicular fluorescence was measured using a Tecan Genios Pro plate reader (Tecan, Switzerland). The apparent inhibition constants for the compounds against all 11 PDE's was determined from the parallel and perpendicular fluorescent readings as described for PDE10 FP assay using the following apparent KM values for each enzyme and substrate combination: PDE1A (FAM cGMP) 70 nM, human PDE2A1 (FAM cAMP) 10,000 nM, PDE3A (FAM cAMP) 50 nM, PDE4A1A (FAM cAMP) 1500 nM, PDE5A1 (FAM cGMP) 400 nM, PDE6C (FAM cGMP) 700 nM, PDE7A (FAM cAMP) 150 nM, PDE8A1 (FAM cAMP) 50 nM, PDE9A2 (FAM cGMP) 60 nM, […] (FAM cAMP) 150 nM, PDE11A4 (FAM cAMP) 1000 nM. The intrinsic PDE2 inhibitory activity of a compound which may be used in accordance with the present invention may be determined by these assays. […]

Rhesus PDE2A3 = Rhesus PDE2A3 (Macaca mulatta, UniProt B3VTJ2); assay: PDE2 fluorescence polarization (IMAP FP) inhibition assay, rhesus enzyme; type: biochemical, rhesus macaque
Chain of Rhesus PDE2A3 (B3VTJ2 1-941): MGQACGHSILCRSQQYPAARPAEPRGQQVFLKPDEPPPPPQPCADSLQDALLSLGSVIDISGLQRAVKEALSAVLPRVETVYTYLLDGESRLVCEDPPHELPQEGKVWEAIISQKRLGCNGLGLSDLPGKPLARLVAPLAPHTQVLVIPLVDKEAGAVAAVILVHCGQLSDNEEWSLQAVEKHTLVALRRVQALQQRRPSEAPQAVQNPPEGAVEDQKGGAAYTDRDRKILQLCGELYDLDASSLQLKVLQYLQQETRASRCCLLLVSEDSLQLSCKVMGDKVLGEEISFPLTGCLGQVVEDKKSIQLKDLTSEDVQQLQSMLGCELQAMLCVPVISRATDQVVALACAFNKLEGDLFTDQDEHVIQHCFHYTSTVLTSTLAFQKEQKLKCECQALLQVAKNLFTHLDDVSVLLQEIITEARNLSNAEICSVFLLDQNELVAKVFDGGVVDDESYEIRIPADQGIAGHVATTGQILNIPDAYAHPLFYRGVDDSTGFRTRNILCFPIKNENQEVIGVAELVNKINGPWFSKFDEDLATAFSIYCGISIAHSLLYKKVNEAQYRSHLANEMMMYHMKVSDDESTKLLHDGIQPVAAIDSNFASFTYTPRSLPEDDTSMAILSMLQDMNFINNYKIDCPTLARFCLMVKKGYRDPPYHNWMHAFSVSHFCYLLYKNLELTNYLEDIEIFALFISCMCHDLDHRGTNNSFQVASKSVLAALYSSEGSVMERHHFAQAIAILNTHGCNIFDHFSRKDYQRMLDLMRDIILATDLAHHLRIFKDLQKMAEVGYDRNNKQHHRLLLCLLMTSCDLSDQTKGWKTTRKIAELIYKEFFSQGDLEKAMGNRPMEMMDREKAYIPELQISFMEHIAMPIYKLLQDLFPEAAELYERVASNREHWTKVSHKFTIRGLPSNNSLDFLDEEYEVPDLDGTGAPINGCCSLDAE
Experimental: as §1
In a typical experiment the PDE2 inhibitory activity of the compounds of the present invention was determined in accordance with the following experimental method. Rhesus PDE2A3 was amplified from rhesus macaque brain cDNA (Biochain Institute, Hayward, Calif.) using primers based on human PDE2A sequence (accession NM_002599.3) where the forward primer containing a Kozak consensus was 5′-[…]-3′ and the reverse primer was 5′-[…]-3′. Amplification with Easy-A High-Fidelity PCR cloning enzyme (Stratagene, La Jolla, Calif.) was 95° C. for 2 minutes followed by thirty three cycles of 95° C. for 40 seconds, 52° C. for 30 seconds, and 72° C. for 2 minutes 48 seconds. Final extension was 72° C. for 7 minutes. The PCR product was TA cloned into pcDNA3.3-TOPO (Invitrogen, Carlsbad, Calif.) according to standard protocol. A consensus sequence was developed from multiple clones and then deposited into GenBank (EU812167). AD293 cells (Stratagene, La Jolla, Calif.) with 70-80% confluency were transiently transfected with rhesus PDE2A3/pcDNA3.3-TOPO using Lipofectamine 2000 according to manufacturer specifications (Invitrogen, Carlsbad, Calif.). Cells were harvested 48 hours post-transfection and lysed by sonication (setting 3, 10×5 sec pulses) in a buffer containing 20 mM HEPES pH 7.4, 1 mM EDTA and Complete Protease Inhibitor Cocktail Tablets (Roche, Indianapolis, Ind.). Lysate was collected by centrifugation at 75,000×g for 20 minutes at 4° C. and supernatant utilized for evaluation of PDE2 activity. The fluorescence polarization assay for cyclic nucleotide phosphodiesterases was performed using an IMAP® FP kit supplied by Molecular Devices, Sunnyvale, Calif. (product # R8139). […] Assays were performed at room temperature in 384-well microtiter plates with an incubation volume of 20.2 μL. Solutions of test compounds were prepared in DMSO and serially diluted with DMSO to yield 8 μL of each of 10 solutions differing by 3-fold in concentration, at 32 serial dilutions per plate. […] 0% of inhibition is determined by using DMSO (1% final concentrations).
A Labcyte Echo 555 (Labcyte, Sunnyvale, Calif.) is used to dispense 200 nL from each well of the titration plate to the 384 well assay plate. Ten microliters of a solution of enzyme (1/2000 final dilution from aliquots; sufficient to produce 20% substrate conversion) was added to the assay plate. Next 10 uL of a separate solution of the substrate FAM-labeled cAMP (50 nM final concentration product # R7506 from Molecular Devices) and the activator cGMP (1 uM final concentration), prepared in the assay buffer (10 mM Tris HCl, pH 7.2, 10 mM MgCl2, 0.05% NaN3 0.01% Tween-20, and 1 mM DTT) was added to the assay plate and shaken to mix. The reaction is allowed to proceed at room temperature for 60 minutes. A binding solution is then made from the kit components, comprised of 80% Solution A, 20% Solution B and binding reagent at a volume of 1/600 the total binding solution. The enzymatic reaction is stopped by addition of 60 μL of the binding solution to each well of the assay plates and the plates are sealed and shaken for 30 seconds. The plate was incubated at room temperature for at least one hour prior to determining the fluorescence polarization (FP). The parallel and perpendicular fluorescence of each well of the plate was measured using a Tecan Genios Pro plate reader (Tecan, Switzerland) or Perkin Elmer EnVision™ plate reader (Waltham, Mass.). Fluorescence polarization (mP) was calculated from the parallel (S) and perpendicular (P) fluorescence of each sample well and the analogous values for the median control well, containing only substrate (So and Po), using the following equation: Polarization (mP)=1000*(S/So−P/Po)/(S/So+P/Po).

[1] = LabA, read-out: rhPDE2 Ki (nM) LabA
[2] = LabB, read-out: rhPDE2 Ki (nM) LabB

Chain of human PDE2A1 (O00408 other isoform, or with tags, fused parts or gaps): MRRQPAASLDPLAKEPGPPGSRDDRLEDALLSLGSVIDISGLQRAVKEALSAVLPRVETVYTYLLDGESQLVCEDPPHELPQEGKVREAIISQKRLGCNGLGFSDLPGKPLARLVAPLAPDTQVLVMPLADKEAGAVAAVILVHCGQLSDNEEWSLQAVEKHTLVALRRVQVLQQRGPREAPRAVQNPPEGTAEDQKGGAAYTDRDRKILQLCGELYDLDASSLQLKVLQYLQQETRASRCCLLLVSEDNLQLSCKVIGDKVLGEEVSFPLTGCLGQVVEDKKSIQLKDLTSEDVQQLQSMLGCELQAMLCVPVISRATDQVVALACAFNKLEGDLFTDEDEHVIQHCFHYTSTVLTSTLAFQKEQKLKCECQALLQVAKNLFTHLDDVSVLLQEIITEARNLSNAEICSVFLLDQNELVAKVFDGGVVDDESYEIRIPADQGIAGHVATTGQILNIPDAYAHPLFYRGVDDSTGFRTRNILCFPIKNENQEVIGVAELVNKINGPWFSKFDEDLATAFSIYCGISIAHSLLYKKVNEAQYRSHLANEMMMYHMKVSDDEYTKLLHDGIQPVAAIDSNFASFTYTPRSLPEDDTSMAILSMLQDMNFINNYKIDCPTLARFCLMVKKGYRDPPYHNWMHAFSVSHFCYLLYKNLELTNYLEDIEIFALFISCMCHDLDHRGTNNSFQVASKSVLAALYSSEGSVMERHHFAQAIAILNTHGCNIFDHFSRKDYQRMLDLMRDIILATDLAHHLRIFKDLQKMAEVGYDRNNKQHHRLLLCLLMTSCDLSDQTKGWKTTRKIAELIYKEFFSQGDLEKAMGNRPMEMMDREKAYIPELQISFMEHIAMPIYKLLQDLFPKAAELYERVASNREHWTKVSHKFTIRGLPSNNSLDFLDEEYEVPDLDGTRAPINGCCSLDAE

Compound	Ki (human PDE2A1)	Ki (Rhesus PDE2A3; [1])	Ki (Rhesus PDE2A3; [2])
Cc1nc(-c2cc(C(C)c3ccc(C(C)(F)F)cc3)ncn2)cc(=O)[nH]1 (single isomer, unassigned) [Example 37, (S)- or (R)-6′-(1-(4-(1,1-difluoro-ethyl)phenyl)ethyl)-2-methyl-[4,4′-bipyrimidin]-6(1H)-one]	65 nM	–	–
Cc1nc(-c2ccnc(C(C)(O)c3ccc(C(F)(F)F)cc3)c2)cc(=O)[nH]1 (centres unmarked) [Example 28, 6-(2-(1-hydroxy-1-(4-(trifluoromethyl)phenyl)ethyl)pyridin-4-yl)-2-methylpyrimidin-4(3H)-one]	–	2880 nM	–
Cc1nc(-c2cc(C(C)c3ccc(C(F)(F)F)cc3)ncn2)cc(=O)[nH]1 (single isomer, unassigned) [Example 33]	20 nM	–	–
Cc1nc(-c2cn(C(c3ccc(C(F)(F)F)cc3F)C(C)C)cn2)cc(=O)[nH]1 (centres unmarked) [Example 21, 6-(1-(1-(2-Fluoro-4-(trifluoromethyl)phenyl)-2-methylpropyl)-1H-imidazol-4-yl)-2-methylpyrimidin-4(3H)-one]	–	–	110 nM
Cc1nc(-c2cc(C(C)c3ccc(OC(F)F)c(F)c3)ncn2)cc(=O)[nH]1 (single isomer, unassigned) [Example 35, (S)- or (R)-6′-(1-(4-(difluoro-methoxy)-3-fluorophenyl)ethyl)-2-methyl-[4,4′-bipyrimidin]-6(1H)-one]	232 nM	–	–
Cc1nc(-c2cncc([C@@H](C)c3ccc(C(F)(F)F)cc3)c2)cc(=O)[nH]1 (single isomer, unassigned) [Example 23]	–	> 1000 nM	–
Cc1nc(-c2cncc(C(O)c3ccc(C(F)(F)F)cc3)c2)cc(=O)[nH]1 (centres unmarked) [Example 25, 6-(5-(Hydroxy(4-(trifluoromethyl)phenyl)methyl)pyridin-3-yl)-2-methylpyrimidin-4(3H)-one]	–	12900 nM	–
CCC(c1ccc(C(F)(F)F)cc1F)n1cnc(-c2cc(=O)[nH]c(C)n2)c1 (centres unmarked) [Example 20, 6-(1-(1-(2-Fluoro-4-(trifluoromethyl)phenyl)propyl)-1H-imidazol-4-yl)-2-methylpyrimidin-4(3H)-one]	–	–	123 nM

Further molecules by falling Ki (Rhesus PDE2A3; [1]), results first:

Ki (human PDE2A1)	Ki (Rhesus PDE2A3; [1])	Ki (Rhesus PDE2A3; [2])	Compound
–	1870 nM	2410 nM	Cc1nc(-c2nc(C(C)c3ccc(C(F)(F)F)cc3)no2)cc(=O)[nH]1 (centres unmarked) [Example 12, 2-Methyl-6-(3-(1-(4-(trifluoromethyl)phenyl)ethyl)-1,2,4-oxadiazol-5-yl)pyrimidin-4(3H)-one]
–	1810 nM	–	Cc1nc(-c2cncc(C(C)(O)c3ccc(C(F)(F)F)cc3)c2)cc(=O)[nH]1 (centres unmarked) [Example 26, 6-(5-(1-Hydroxy-1-(4-(trifluoromethyl)phenyl)ethyl)pyridin-3-yl)-2-methylpyrimidin-4(3H)-one]
–	1710 nM	1660 nM	Cc1nc(-c2cncc(C(C)c3ccc(C(F)(F)F)cc3)n2)cc(=O)[nH]1 (centres unmarked) [Example 29, 2-Methyl-6-(6-(1-(4-(trifluoromethyl)phenyl)ethyl)pyrazin-2-yl)pyrimidin-4(3H)-one]
–	1270 nM	–	Cc1nc(-c2ccnc(C(C)c3ccc(C(F)(F)F)cc3)c2)cc(=O)[nH]1 (centres unmarked) [Example 27, 2-Methyl-6-(2-(1-(4-(trifluoromethyl)phenyl)ethyl)pyridin-4-yl)pyrimidin-4(3H)-one]
–	1080 nM	1750 nM	Cc1nc(-c2noc(C(C)c3ccc(C(F)(F)F)cc3)n2)cc(=O)[nH]1 (centres unmarked) [Example 11, 2-Methyl-6-(5-(1-(4-(trifluoromethyl)phenyl)ethyl)-1,2,4-oxadiazol-3-yl)pyrimidin-4(3H)-one]
–	920 nM	868 nM	Cc1nc(-c2cc(C(C)c3ccc(C(F)(F)F)cc3)ccn2)cc(=O)[nH]1 (centres unmarked) [Example 22, 2-methyl-6-(4-(1-(4-(trifluoromethyl)phenyl)ethyl)pyridin-2-yl)pyrimidin-4(3H)-one]
–	868 nM	631 nM	Cc1nc(-c2ncc(C(C)c3ccc(C(F)(F)F)cc3)[nH]2)cc(=O)[nH]1 (centres unmarked) [Example 13, 2-Methyl-6-(5-(1-(4-(trifluoromethyl)phenyl)ethyl)-1H-imidazol-2-yl)pyrimidin-4(3H)-one]
–	826 nM	–	Cc1nc(-c2cncc([C@@H](C)c3ccc(C(F)(F)F)cc3)c2)cc(=O)[nH]1 (single isomer, unassigned) [Example 24]
–	532 nM	–	Cc1nc(-c2nc(C(C)c3ccc(C(F)(F)F)cc3)cs2)cc(=O)[nH]1 (centres unmarked) [Example 3, 2-Methyl-6-(4-(1-(4-(trifluoromethyl)phenyl)ethyl)thiazol-2-yl)pyrimidin-4(3H)-one]
–	470 nM	699 nM	Cc1nc(-c2nnc([C@H](C)c3ccc(C(F)(F)F)cc3)o2)cc(=O)[nH]1 (single isomer, unassigned) [Example 10]
–	340 nM	–	Cc1nc(-c2cn(C(C)c3ccc(C(F)(F)F)cc3)cn2)cc(=O)[nH]1 (single isomer, unassigned) [Example 16, (R)- or (S)-2-methyl-6-(1-(1-(4-(trifluoro-methyl)phenyl)ethyl)-1H-imidazol-4-yl) pyrimidin-4 (3H)-one]
–	298 nM	–	Cc1nc(-c2cn([C@H](C)c3ccc(C(F)(F)F)cc3F)cn2)cc(=O)[nH]1 (single isomer, unassigned) [Example 14]
